{
  "source": "paper PMC6136660",
  "about": "(Steroids, 2018)",
  "key": {"[1]": {"assay": "Aqueous solubility (statement)", "assay_type": "physicochemical", "conditions": "aqueous solutions"}, "[2]": {"test_system": "white blood cells and subsets (lymphocytes, neutrophils, eosinophils)", "assay": "Differential white blood cell counts (immune suppression), MAD", "assay_type": "in vivo, human", "conditions": "for Eosinophils: mean; for Lymphocytes / Neutrophil cell counts / White blood cells counts: mean±SEM, in 10^9/L (unit assumed)", "description": "A single dose of pharmacological glucocorticoids results in rapid changes in peripheral blood white cell counts, with increased neutrophils, and decreased lymphocytes. Increases of neutrophils are from release from peripheral tissues, whereas loss of lymphocytes is due to induction of apoptosis. Differential white blood cell counts were studied in all Phase 1 MAD subjects. […]\nplacebo. White blood cells and subsets (lymphocytes, neutrophils, eosinophils) were measured at screening, day -1, pre-dose on days 1-14, day 17, and at follow-up (recovery). Day 1 (pre-dose), Day 2 (24 hr after first dose), Day 14 and follow-up (recovery) time points are graphed […]"}, "[3]": {"conditions": "MAD 1.0 mg/kg, Day 1 predose, baseline"}, "[4]": {"conditions": "MAD 1.0 mg/kg, Day 17 (3 days after last dose)"}, "[5]": {"conditions": "MAD 1.0 mg/kg, Day 21 follow-up"}, "[6]": {"conditions": "MAD 1.0 mg/kg, Day -1, baseline"}, "[7]": {"conditions": "MAD 1.0 mg/kg, Screening, baseline"}, "[8]": {"conditions": "MAD 3.0 mg/kg, Day 1 predose, baseline"}, "[9]": {"conditions": "MAD 3.0 mg/kg, Day 17 (3 days after last dose)"}, "[10]": {"conditions": "MAD 3.0 mg/kg, Day 21 follow-up"}, "[11]": {"conditions": "MAD 3.0 mg/kg, Day -1, baseline"}, "[12]": {"conditions": "MAD 3.0 mg/kg, Screening, baseline"}},
  "data": [
    {"compound": "C[C@@H]1C[C@H]2[C@@H]3CCC4=CC(=O)C=C[C@]4(C)C3=CC[C@]2(C)[C@@]1(O)C(=O)CO", "note": "[vamorolone]", "values": [
      {"measurement": "solubility", "setting": "[1]", "value": "very poor solubility in aqueous solutions"},
      {"measurement": "Eosinophils", "setting": "[2]; [3]", "value": "0.17 10^9/L"},
      {"measurement": "Lymphocytes", "setting": "[2]; [3]", "value": "1.9 ± 0.4"},
      {"measurement": "Neutrophil cell counts", "setting": "[2]; [3]", "value": "2.8 ± 1.0"},
      {"measurement": "White blood cells counts", "setting": "[2]; [3]", "value": "5.2 ± 1.0"},
      {"measurement": "Eosinophils", "setting": "[2]; MAD 1.0 mg/kg, Day 2 predose", "value": "0.17 10^9/L"},
      {"measurement": "Lymphocytes", "setting": "[2]; MAD 1.0 mg/kg, Day 2 predose", "value": "1.8 ± 0.3"},
      {"measurement": "Neutrophil cell counts", "setting": "[2]; MAD 1.0 mg/kg, Day 2 predose", "value": "3.0 ± 0.9"},
      {"measurement": "White blood cells counts", "setting": "[2]; MAD 1.0 mg/kg, Day 2 predose", "value": "5.3 ± 0.9"},
      {"measurement": "Eosinophils", "setting": "[2]; MAD 1.0 mg/kg, Day 3 predose", "value": "0.17 10^9/L"},
      {"measurement": "Lymphocytes", "setting": "[2]; MAD 1.0 mg/kg, Day 3 predose", "value": "2.1 ± 0.2"},
      {"measurement": "Neutrophil cell counts", "setting": "[2]; MAD 1.0 mg/kg, Day 3 predose", "value": "2.8 ± 0.8"},
      {"measurement": "White blood cells counts", "setting": "[2]; MAD 1.0 mg/kg, Day 3 predose", "value": "5.4 ± 0.8"},
      {"measurement": "Eosinophils", "setting": "[2]; MAD 1.0 mg/kg, Day 7 predose", "value": "0.2 10^9/L"},
      {"measurement": "Lymphocytes", "setting": "[2]; MAD 1.0 mg/kg, Day 7 predose", "value": "2.1 ± 0.3"},
      {"measurement": "Neutrophil cell counts", "setting": "[2]; MAD 1.0 mg/kg, Day 7 predose", "value": "3.1 ± 0.9"},
      {"measurement": "White blood cells counts", "setting": "[2]; MAD 1.0 mg/kg, Day 7 predose", "value": "5.9 ± 0.7"},
      {"measurement": "Eosinophils", "setting": "[2]; MAD 1.0 mg/kg, Day 12 predose", "value": "0.2 10^9/L"},
      {"measurement": "Lymphocytes", "setting": "[2]; MAD 1.0 mg/kg, Day 12 predose", "value": "2.3 ± 0.3"},
      {"measurement": "Neutrophil cell counts", "setting": "[2]; MAD 1.0 mg/kg, Day 12 predose", "value": "3.2 ± 1.0"},
      {"measurement": "White blood cells counts", "setting": "[2]; MAD 1.0 mg/kg, Day 12 predose", "value": "6.1 ± 0.9"},
      {"measurement": "Eosinophils", "setting": "[2]; MAD 1.0 mg/kg, Day 14 predose", "value": "0.18 10^9/L"},
      {"measurement": "Lymphocytes", "setting": "[2]; MAD 1.0 mg/kg, Day 14 predose", "value": "2.3 ± 0.2"},
      {"measurement": "Neutrophil cell counts", "setting": "[2]; MAD 1.0 mg/kg, Day 14 predose", "value": "3.0 ± 1.0"},
      {"measurement": "White blood cells counts", "setting": "[2]; MAD 1.0 mg/kg, Day 14 predose", "value": "5.9 ± 0.9"},
      {"measurement": "Eosinophils", "setting": "[2]; [4]", "value": "0.17 10^9/L"},
      {"measurement": "Lymphocytes", "setting": "[2]; [4]", "value": "2.1 ± 0.4"},
      {"measurement": "Neutrophil cell counts", "setting": "[2]; [4]", "value": "3.0 ± 0.8"},
      {"measurement": "White blood cells counts", "setting": "[2]; [4]", "value": "5.7 ± 0.6"},
      {"measurement": "Eosinophils", "setting": "[2]; [5]", "value": "0.15 10^9/L"},
      {"measurement": "Lymphocytes", "setting": "[2]; [5]", "value": "2.0 ± 0.2"},
      {"measurement": "Neutrophil cell counts", "setting": "[2]; [5]", "value": "3.0 ± 0.6"},
      {"measurement": "White blood cells counts", "setting": "[2]; [5]", "value": "5.5 ± 0.7"},
      {"measurement": "Eosinophils", "setting": "[2]; [6]", "value": "0.18 10^9/L"},
      {"measurement": "Lymphocytes", "setting": "[2]; [6]", "value": "2.1 ± 0.5"},
      {"measurement": "Neutrophil cell counts", "setting": "[2]; [6]", "value": "2.8 ± 0.9"},
      {"measurement": "White blood cells counts", "setting": "[2]; [6]", "value": "5.5 ± 0.8"},
      {"measurement": "Eosinophils", "setting": "[2]; [7]", "value": "0.13 10^9/L"},
      {"measurement": "Lymphocytes", "setting": "[2]; [7]", "value": "1.8 ± 0.5"},
      {"measurement": "Neutrophil cell counts", "setting": "[2]; [7]", "value": "3.6 ± 2.0"},
      {"measurement": "White blood cells counts", "setting": "[2]; [7]", "value": "5.9 ± 2.2"},
      {"measurement": "Eosinophils", "setting": "[2]; [8]", "value": "0.23 10^9/L"},
      {"measurement": "Lymphocytes", "setting": "[2]; [8]", "value": "1.8 ± 0.6"},
      {"measurement": "Neutrophil cell counts", "setting": "[2]; [8]", "value": "3.4 ± 1.3"},
      {"measurement": "White blood cells counts", "setting": "[2]; [8]", "value": "5.8 ± 2.0"},
      {"measurement": "Eosinophils", "setting": "[2]; MAD 3.0 mg/kg, Day 2 predose", "value": "0.23 10^9/L"},
      {"measurement": "Lymphocytes", "setting": "[2]; MAD 3.0 mg/kg, Day 2 predose", "value": "2.0 ± 0.4"},
      {"measurement": "Neutrophil cell counts", "setting": "[2]; MAD 3.0 mg/kg, Day 2 predose", "value": "3.4 ± 1.2"},
      {"measurement": "White blood cells counts", "setting": "[2]; MAD 3.0 mg/kg, Day 2 predose", "value": "5.9 ± 1.5"},
      {"measurement": "Eosinophils", "setting": "[2]; MAD 3.0 mg/kg, Day 3 predose", "value": "0.2 10^9/L"},
      {"measurement": "Lymphocytes", "setting": "[2]; MAD 3.0 mg/kg, Day 3 predose", "value": "2.1 ± 0.7"},
      {"measurement": "Neutrophil cell counts", "setting": "[2]; MAD 3.0 mg/kg, Day 3 predose", "value": "3.4 ± 1.4"},
      {"measurement": "White blood cells counts", "setting": "[2]; MAD 3.0 mg/kg, Day 3 predose", "value": "6.1 ± 2.2"},
      {"measurement": "Eosinophils", "setting": "[2]; MAD 3.0 mg/kg, Day 7 predose", "value": "0.18 10^9/L"},
      {"measurement": "Lymphocytes", "setting": "[2]; MAD 3.0 mg/kg, Day 7 predose", "value": "2.4 ± 0.8"},
      {"measurement": "Neutrophil cell counts", "setting": "[2]; MAD 3.0 mg/kg, Day 7 predose", "value": "3.3 ± 0.9"},
      {"measurement": "White blood cells counts", "setting": "[2]; MAD 3.0 mg/kg, Day 7 predose", "value": "6.3 ± 2.0"},
      {"measurement": "Eosinophils", "setting": "[2]; MAD 3.0 mg/kg, Day 12 predose", "value": "0.18 10^9/L"},
      {"measurement": "Lymphocytes", "setting": "[2]; MAD 3.0 mg/kg, Day 12 predose", "value": "2.1 ± 0.7"},
      {"measurement": "Neutrophil cell counts", "setting": "[2]; MAD 3.0 mg/kg, Day 12 predose", "value": "3.2 ± 1.1"},
      {"measurement": "White blood cells counts", "setting": "[2]; MAD 3.0 mg/kg, Day 12 predose", "value": "6.0 ± 2.0"},
      {"measurement": "Eosinophils", "setting": "[2]; MAD 3.0 mg/kg, Day 14 predose", "value": "0.2 10^9/L"},
      {"measurement": "Lymphocytes", "setting": "[2]; MAD 3.0 mg/kg, Day 14 predose", "value": "2.2 ± 0.6"},
      {"measurement": "Neutrophil cell counts", "setting": "[2]; MAD 3.0 mg/kg, Day 14 predose", "value": "3.0 ± 1.1"},
      {"measurement": "White blood cells counts", "setting": "[2]; MAD 3.0 mg/kg, Day 14 predose", "value": "5.8 ± 1.8"},
      {"measurement": "Eosinophils", "setting": "[2]; [9]", "value": "0.17 10^9/L"},
      {"measurement": "Lymphocytes", "setting": "[2]; [9]", "value": "2.0 ± 0.5"},
      {"measurement": "Neutrophil cell counts", "setting": "[2]; [9]", "value": "4.0 ± 1.1"},
      {"measurement": "White blood cells counts", "setting": "[2]; [9]", "value": "6.6 ± 1.6"},
      {"measurement": "Eosinophils", "setting": "[2]; [10]", "value": "0.18 10^9/L"},
      {"measurement": "Lymphocytes", "setting": "[2]; [10]", "value": "1.8 ± 0.6"},
      {"measurement": "Neutrophil cell counts", "setting": "[2]; [10]", "value": "3.9 ± 1.4"},
      {"measurement": "White blood cells counts", "setting": "[2]; [10]", "value": "6.3 ± 1.6"},
      {"measurement": "Eosinophils", "setting": "[2]; [11]", "value": "0.2 10^9/L"},
      {"measurement": "Lymphocytes", "setting": "[2]; [11]", "value": "1.9 ± 0.6"},
      {"measurement": "Neutrophil cell counts", "setting": "[2]; [11]", "value": "3.5 ± 1.4"},
      {"measurement": "White blood cells counts", "setting": "[2]; [11]", "value": "6.1 ± 1.9"},
      {"measurement": "Eosinophils", "setting": "[2]; [12]", "value": "0.18 10^9/L"},
      {"measurement": "Lymphocytes", "setting": "[2]; [12]", "value": "2.0 ± 1.0"},
      {"measurement": "Neutrophil cell counts", "setting": "[2]; [12]", "value": "3.5 ± 1.8"},
      {"measurement": "White blood cells counts", "setting": "[2]; [12]", "value": "6.2 ± 2.9"}
    ]}
  ]
}
